Test systems include HT29 colon; SK-MEL-28 melanoma; A549 NSCLC; SR leukemia; HOP-92 NSCLC; RXF 393 renal; ACHN renal; HOP-62 NSCLC; MOLT-4 leukemia.
Test in all cases: DTP human tumour cell line panel, 48 h

Experimental findings from PubChem BioAssay (NCI) are described below.

Each structure is given as a SMILES string.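 Each compound was tested at five concentrations against cells in 96-well plates for 48 hours. GI50 is the concentration that inhibits growth by half. TGI marks complete inhibition of growth.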

One may read the TGI as the concentration giving total growth inhibition. As a reminder, the GI50 is the concentration giving 50% growth inhibition.

As to `O=c1c(O)c(-c2ccc(O)c(O)c2)oc2cc(O)ccc12`, the TGI with HT29 colon is 98.8 µM; in the assay with SK-MEL-28 melanoma, above 58.4 µM; in the assay on A549 NSCLC it was above 100 µM; with SR leukemia, 99.8 µM; with HOP-92 NSCLC, 71.8 µM; with RXF 393 renal it was 47 µM. The TGI with ACHN renal is above 91 µM; with HOP-62 NSCLC, above 100 µM; with MOLT-4 leukemia it was above 72.5 µM.
On to `CCC[CH2][Sn]1([CH2]CCC)[O]C(c2ccccn2)S(=O)(=O)[O]1` (stereo not drawn), for which the GI50 in the assay with HT29 colon was 3.79 µM; with SK-MEL-28 melanoma, 1.94 µM; with A549 NSCLC it was 20 µM; with SR leukemia it was 2.45 µM; with HOP-92 NSCLC, 1.41 µM; in the assay with RXF 393 renal, 2.36 µM. The GI50 with ACHN renal was 7.88 µM; with HOP-62 NSCLC, 28.1 µM; in the assay on MOLT-4 leukemia, 2.84 µM. Further, the TGI is 12.2 µM in the assay on HT29 colon; 3.76 µM with SK-MEL-28 melanoma; 34.3 µM in the assay with A549 NSCLC; 6.62 µM with SR leukemia; 2.86 µM with HOP-92 NSCLC; 3.95 µM with RXF 393 renal. Moreover, the figures for the TGI in the assay on ACHN renal, with HOP-62 NSCLC and with MOLT-4 leukemia were 20 µM, 43 µM and 7.51 µM, respectively.
`CCN1C(C)=NC2C(=O)c3ccccc3C(=O)C21` (stereo not drawn): the TGI with HT29 colon, with SK-MEL-28 melanoma, in the assay with A549 NSCLC, in the assay on SR leukemia, in the assay with RXF 393 renal and in the assay with ACHN renal was above 100 µM throughout. The TGI with HOP-62 NSCLC and in the assay on MOLT-4 leukemia was above 100 µM throughout.
`CCc1ccccc1NC(=O)/C(CC(=O)c1c(C)n([O-])c2ccccc2[n+]1=O)=N\NS(=O)(=O)c1ccc(C)cc1`: the TGI is above 100 µM in the assay with HT29 colon; above 100 µM in the assay on SK-MEL-28 melanoma; above 100 µM in the assay on A549 NSCLC; 42.8 µM in the assay with SR leukemia; above 100 µM with RXF 393 renal; above 100 µM in the assay with ACHN renal. For the same compound, the TGI in the assay with HOP-62 NSCLC was above 100 µM; with MOLT-4 leukemia it was 42.6 µM.
Take `CC(=O)CC(=O)N(CCN(C(=O)CC(C)=O)c1ccccc1)c1ccccc1`: the TGI in the assay on SK-MEL-28 melanoma, in the assay with A549 NSCLC, with HOP-92 NSCLC, in the assay with RXF 393 renal, in the assay on ACHN renal and in the assay with HOP-62 NSCLC was above 100 µM in each case. The compound further gave a TGI in the assay on MOLT-4 leukemia above 100 µM.
Consider `C/C(=N\O)c1sc(-n2nc(-c3ccccc3)cc2-c2ccccc2)nc1C`, for which the TGI was found to be 19 µM with HT29 colon; 17.8 µM in the assay with SK-MEL-28 melanoma; 25.3 µM in the assay on A549 NSCLC; 28.6 µM in the assay with SR leukemia; 19.6 µM in the assay on ACHN renal; 22.2 µM in the assay on HOP-62 NSCLC. For the same compound, the TGI in the assay on MOLT-4 leukemia was determined as 25.5 µM.
Turning to `CCOC(=O)C12CCCC1(O)N(NC(=O)c1cccc(Cl)c1)C(C)=C2C(=O)OC` (stereo not drawn), the TGI with HT29 colon, with SK-MEL-28 melanoma, with A549 NSCLC, in the assay with SR leukemia, with RXF 393 renal and in the assay on ACHN renal was above 100 µM throughout. In addition, the concentration for total growth inhibition (TGI) in the assay with HOP-62 NSCLC and with MOLT-4 leukemia was above 100 µM in each case.
For the compound `C[C@H](c1ccc(Cl)cc1N)N1C(=O)c2cc(I)ccc2N(CCCN2CCN(C)CC2)C(=O)[C@@H]1c1ccc(Cl)cc1`, the GI50 was 1.82 µM with HT29 colon; 1.69 µM in the assay with SK-MEL-28 melanoma; 1.3 µM in the assay with A549 NSCLC; 1.01 µM in the assay with SR leukemia; 1.22 µM in the assay on ACHN renal; 1.75 µM in the assay with MOLT-4 leukemia. In addition, the total growth inhibition concentration (TGI) in the assay on HT29 colon was found to be 3.47 µM; with SK-MEL-28 melanoma it was 3.08 µM; with A549 NSCLC, 2.57 µM; in the assay with SR leukemia, 2.6 µM; with ACHN renal, 2.5 µM; with MOLT-4 leukemia it was 3.59 µM.
On to `CC1(C)CC23C(=O)N(c4ccccc4)C(=Nc4ccccc4)NC2=CC(C#N)=C(C#N)C3O1` (stereo not drawn), for which the TGI with HT29 colon is above 100 µM; in the assay on SK-MEL-28 melanoma, above 100 µM; in the assay on A549 NSCLC, above 100 µM; in the assay with HOP-92 NSCLC it was 52.2 µM; with RXF 393 renal, above 100 µM; in the assay on ACHN renal, above 100 µM. Also, the TGI in the assay with HOP-62 NSCLC and in the assay on MOLT-4 leukemia was above 100 µM in each case.
As for `Cc1ccc(-c2csc(N(C(=O)N3CCN(c4cc5c(cc4F)c(=O)c(C(=O)O)cn5C4CC4)CC3)c3ccccc3)n2)cc1`, the GI50 with SK-MEL-28 melanoma was 0.582 µM; in the assay with A549 NSCLC, 0.372 µM; in the assay with SR leukemia it was 0.238 µM; in the assay with HOP-92 NSCLC, 0.213 µM; with RXF 393 renal, 0.368 µM; in the assay with ACHN renal it was 0.278 µM. Moreover, in the assay with HOP-62 NSCLC, the 50% growth inhibitory concentration (GI50) is 0.389 µM. For the same compound, the TGI is above 100 µM with SK-MEL-28 melanoma; above 100 µM in the assay with A549 NSCLC; above 100 µM in the assay on SR leukemia; 0.798 µM with HOP-92 NSCLC; 20.5 µM in the assay with RXF 393 renal; above 100 µM with ACHN renal. Further, the TGI in the assay with HOP-62 NSCLC is above 46.3 µM.
Take `CC(C#N)c1cn(S(=O)(=O)c2ccccc2)c2ccccc12` (stereo not drawn): the TGI was above 100 µM with HT29 colon; above 100 µM in the assay on SK-MEL-28 melanoma; above 100 µM with A549 NSCLC; above 100 µM with SR leukemia; 53.8 µM in the assay on HOP-92 NSCLC; above 100 µM in the assay with ACHN renal. For the same compound, the TGI in the assay on HOP-62 NSCLC and with MOLT-4 leukemia was above 100 µM throughout.
As to `CN1CCC23c4c5ccc(O)c4OC2C(=NN=C2CCC4(O)C6Cc7ccc(O)c8c7C4(CCN6C)C2O8)CCC3(O)C1C5` (stereo not drawn), the TGI in the assay with HT29 colon, in the assay on SK-MEL-28 melanoma, in the assay on A549 NSCLC, with HOP-92 NSCLC, with ACHN renal and in the assay with HOP-62 NSCLC was above 100 µM throughout. In the assay with MOLT-4 leukemia, this compound yielded a total growth inhibition concentration (TGI) above 100 µM.
For `O=C(O)/C(Cl)=C(\Cl)Nc1cccc(C(F)(F)F)c1`, the TGI with HT29 colon is above 100 µM; in the assay with SK-MEL-28 melanoma, above 100 µM; in the assay on A549 NSCLC it was above 100 µM; in the assay on HOP-92 NSCLC, 22.3 µM; with RXF 393 renal it was above 100 µM; with ACHN renal it was above 100 µM. Besides, in the assay on HOP-62 NSCLC, the TGI is above 100 µM.
`CC(=O)[CH-]C(=O)c1ccccc1.CC(=O)[CH-]C(=O)c1ccccc1.O=C([O-])C[O-].O=C([O-])C[O-].[Ti+4]`: the GI50 is 27.7 µM in the assay with HT29 colon; 68.1 µM in the assay with SK-MEL-28 melanoma; 18.2 µM in the assay on A549 NSCLC; 44.9 µM in the assay on ACHN renal; 58.7 µM in the assay on HOP-62 NSCLC; 27.7 µM in the assay on MOLT-4 leukemia. Further, the TGI in the assay on HT29 colon is 91.7 µM; in the assay on SK-MEL-28 melanoma, above 100 µM; with A549 NSCLC, above 100 µM; in the assay on ACHN renal, above 100 µM; in the assay on HOP-62 NSCLC, above 100 µM; in the assay on MOLT-4 leukemia, above 100 µM.
